Reference: PubChem BioAssay AID296 (DTP/NCI, 2004)
Where “and” joins values, the source holds several entries; their conditions need not be identical. Equal entries are not always repeated. Results filed as inconclusive are left out.

Tested on: MX-1 breast xenograft, nude mice, tumor weight T/C
Assay: NCI In Vivo Anticancer Drug Screen. Data for tumor model Human Mammary Carcinoma MX-1 Xenograft (intrarenal inoculation) in NU/NU Swiss (nude) mice
Settings: endpoint: mean tumor weight change, higher = larger tumour
In short: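 Read-out: treated (T) over vehicle control (C) ratio of survival or tumor size. Dosing in animals carrying the transplanted tumor.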

[1] = dose: 36.0 mg/kg/injection, schedule: Q04DX003 (sc), vehicle: saline with Tween-80
[2] = dose: 300.0 mg/kg/injection, schedule: Q04DX003 (sc), vehicle: Klucel (hydroxypropylcellulose) (HPC)
[3] = dose: 600.0 mg/kg/injection, schedule: Q04DX003 (sc), vehicle: Klucel (hydroxypropylcellulose) (HPC)
[4] = dose: 1200.0 mg/kg/injection, schedule: Q04DX003 (sc), vehicle: Klucel (hydroxypropylcellulose) (HPC)
[5] = dose: 2400.0 mg/kg/injection, schedule: Q04DX003 (sc), vehicle: Klucel (hydroxypropylcellulose) (HPC)
[6] = dose: 25.0 mg/kg/injection, schedule: Q01DX010 (sc), vehicle: Klucel (hydroxypropylcellulose) (HPC)
[7] = dose: 200.0 mg/kg/injection, schedule: Q01DX010 (sc), vehicle: Klucel (hydroxypropylcellulose) (HPC)
[8] = dose: 150.0 mg/kg/injection, schedule: Q04DX003 (sc), vehicle: saline with Tween-80
[9] = dose: 300.0 mg/kg/injection, schedule: Q04DX003 (sc), vehicle: saline with Tween-80
[10] = dose: 600.0 mg/kg/injection, schedule: Q04DX003 (sc), vehicle: saline with Tween-80
[11] = dose: 1200.0 mg/kg/injection, schedule: Q04DX003 (sc), vehicle: saline with Tween-80
[12] = dose: 75.0 mg/kg/injection, schedule: Q04DX003 (sc), vehicle: saline with Tween-80
[13] = dose: 150.0 mg/kg/injection, schedule: Q04DX003 (sc), vehicle: Klucel (hydroxypropylcellulose) (HPC)
[14] = dose: 100.0 mg/kg/injection, schedule: Q01DX010 (sc), vehicle: saline with Tween-80
[15] = dose: 400.0 mg/kg/injection, schedule: Q01DX010 (sc), vehicle: saline with Tween-80
[16] = dose: 12.5 mg/kg/injection, schedule: Q01DX010 (sc), vehicle: saline
[17] = dose: 25.0 mg/kg/injection, schedule: Q01DX010 (sc), vehicle: saline
[18] = dose: 50.0 mg/kg/injection, schedule: Q01DX010 (sc), vehicle: saline

## CCCCCCCCSC1=C(Cl)C(=O)C(OC)=C(OC)C1=O
[1]
  T/C: 113 % of control
dose: 72.0 mg/kg/injection, schedule: Q04DX003 (sc), vehicle: saline with Tween-80
  T/C: 109 % of control
dose: 144.0 mg/kg/injection, schedule: Q04DX003 (sc), vehicle: saline with Tween-80
  T/C: 90 % of control

## Cc1cc(Nc2ccc3c(c2)OCO3)c2cc3c(cc2n1)OCO3
[2]
  T/C: 61 % of control
[3]
  T/C: 81 % of control
[4]
  T/C: 81 % of control
[5]
  T/C: 92 % of control

## C=CCNc1ccc(C)cc1
[6]
  T/C: 97 % of control
dose: 50.0 mg/kg/injection, schedule: Q01DX010 (sc), vehicle: Klucel (hydroxypropylcellulose) (HPC)
  T/C: 69 % of control and 70 % of control
[7]
  T/C: 70 % of control and 76 % of control
dose: 400.0 mg/kg/injection, schedule: Q01DX010 (sc), vehicle: Klucel (hydroxypropylcellulose) (HPC)
  T/C: 16 % of control

## Nc1ccccc1N
[6]
  T/C: 103 % of control
dose: 100.0 mg/kg/injection, schedule: Q01DX010 (sc), vehicle: Klucel (hydroxypropylcellulose) (HPC)
  T/C: 80 % of control and 211 % of control
[7]
  T/C: 34 % of control and 47 % of control

## C[C@@H]1C[C@H]2[C@@H]3CCC4=CC(=O)C=C[C@]4(C)[C@@]3(F)[C@@H](O)C[C@]2(C)[C@@]1(O)C(=O)CO
dose: 3.13 mg/kg/injection, schedule: Q01DX010 (sc), vehicle: Klucel (hydroxypropylcellulose) (HPC)
  T/C: 44 % of control
dose: 6.25 mg/kg/injection, schedule: Q01DX010 (sc), vehicle: Klucel (hydroxypropylcellulose) (HPC)
  T/C: 28 % of control
dose: 12.5 mg/kg/injection, schedule: Q01DX010 (sc), vehicle: Klucel (hydroxypropylcellulose) (HPC)
  T/C: 35 % of control
[6]
  T/C: 33 % of control

## O=C(C/C(=N\C(=S)Nc1cc(C(F)(F)F)ccc1Cl)NO)N1CCCC1
[8]
  T/C: 88 % of control
[9]
  T/C: 94 % of control
[10]
  T/C: 82 % of control
[11]
  T/C: 98 % of control

## CC(Cc1ccc(O)cc1)NCC(O)c1ccc(O)c(O)c1 (stereo not drawn)
[12]
  T/C: 91 % of control
[8]
  T/C: 96 % of control
[10]
  T/C: 67 % of control
[11]
  T/C: 82 % of control
dose: 2400.0 mg/kg/injection, schedule: Q04DX003 (sc), vehicle: saline with Tween-80
  T/C: 45 % of control

## CC1=CC(=Nc2ccc(N(CCCl)CCCl)cc2)C=C(C)C1=O
[13]
  T/C: 34 % of control
[5]
  T/C: -89 % of control

## O=c1n(CC2CO2)c(=O)n(CC2CO2)n1CC1CO1 (stereo not drawn)
dose: 9.38 mg/kg/injection, schedule: Q04DX003 (sc), vehicle: saline
  T/C: 57 % of control
dose: 18.7 mg/kg/injection, schedule: Q04DX003 (sc), vehicle: saline
  T/C: 4 % of control
dose: 18.75 mg/kg/injection, schedule: Q04DX003 (sc), vehicle: saline
  T/C: 2 % of control
dose: 29.0 mg/kg/injection, schedule: Q04DX003 (sc), vehicle: saline
  T/C: -11 % of control
dose: 37.5 mg/kg/injection, schedule: Q04DX003 (sc), vehicle: saline
  T/C: -83 % of control and -73 % of control

## COc1cc(NCc2ccc3nc(N)nc(N)c3c2C)cc(OC)c1OC (tested in a mixture with another compound)
dose: 10.0 mg/kg/injection, schedule: Q04DX003 (ip), vehicle: water
  T/C: 92 % of control
dose: 20.0 mg/kg/injection, schedule: Q04DX003 (ip), vehicle: water
  T/C: 100 % of control
dose: 40.0 mg/kg/injection, schedule: Q04DX003 (ip), vehicle: water
  T/C: 101 % of control
dose: 80.0 mg/kg/injection, schedule: Q04DX003 (ip), vehicle: water
  T/C: 115 % of control
dose: 160.0 mg/kg/injection, schedule: Q04DX003 (ip), vehicle: water
  T/C: 70 % of control

## O=C1N(Cl)C(=O)C(c2ccc(Cl)cc2)(c2ccc(Cl)cc2)N1Cl
dose: 50.0 mg/kg/injection, schedule: Q01DX010 (sc), vehicle: saline with Tween-80
  T/C: 68 % of control
[14]
  T/C: 111 % of control
dose: 200.0 mg/kg/injection, schedule: Q01DX010 (sc), vehicle: saline with Tween-80
  T/C: 65 % of control
[15]
  T/C: 87 % of control

## Cn1c2ccccc2c2ccc3c(c21)C(=O)C=CC3=O
[12]
  T/C: 62 % of control
[8]
  T/C: 61 % of control
[9]
  T/C: 117 % of control
[10]
  T/C: 88 % of control

## NC(=O)c1ncn(C2OC(CO)C(O)C2O)c1O (stereo not drawn)
[2]
  T/C: 73 % of control
[3]
  T/C: 95 % of control
[4]
  T/C: 98 % of control

## O=C1N=C(Oc2ccccc2)SC1=O
dose: 400.0 mg/kg/injection, schedule: Q04DX003 (sc), vehicle: saline with Tween-80
  T/C: 67 % of control

## CCCCn1cnc2c(=S)nc[nH]c21
dose: 300.0 mg/kg/injection, schedule: Q04DX003 (sc), vehicle: suspension in saline
  T/C: 119 % of control
dose: 600.0 mg/kg/injection, schedule: Q04DX003 (sc), vehicle: suspension in saline
  T/C: 81 % of control
dose: 1024.0 mg/kg/injection, schedule: Q04DX003 (sc), vehicle: suspension in saline
  T/C: 67 % of control
dose: 1200.0 mg/kg/injection, schedule: Q04DX003 (sc), vehicle: suspension in saline
  T/C: 16 % of control
dose: 1600.0 mg/kg/injection, schedule: Q04DX003 (sc), vehicle: suspension in saline
  T/C: 49 % of control
dose: 2000.0 mg/kg/injection, schedule: Q04DX003 (sc), vehicle: suspension in saline
  T/C: 4 % of control

## COc1cc(C)c2c(c1C=O)Oc1c(c(C)c(O)c3c1C(O)OC3=O)OC2=O (stereo not drawn)
dose: 6.25 mg/kg/injection, schedule: Q01DX010 (sc), vehicle: saline
  T/C: 90 % of control
[16]
  T/C: 62 % of control and 78 % of control
[17]
  T/C: 96 % of control and 118 % of control
[18]
  T/C: 67 % of control and 88 % of control
dose: 100.0 mg/kg/injection, schedule: Q01DX010 (sc), vehicle: saline
  T/C: 98 % of control

## C=CCNc1nc2c(s1)CCc1cc(OC)c(OC)cc1-2
[9]
  T/C: 92 % of control
[10]
  T/C: 96 % of control
[11]
  T/C: 80 % of control

## O=Cc1ccc(C(Cl)(Cl)Cl)cc1
[14]
  T/C: 182 % of control
[15]
  T/C: 120 % of control
dose: 800.0 mg/kg/injection, schedule: Q01DX010 (sc), vehicle: saline with Tween-80
  T/C: 46 % of control

## COc1cc(NS(C)(=O)=O)ccc1Nc1c2ccccc2nc2ccccc12
dose: 0.75 mg/kg/injection, schedule: Q01DX010 (sc), vehicle: lactic acid
  T/C: 124 % of control
dose: 3.75 mg/kg/injection, schedule: Q01DX010 (sc), vehicle: clinical formulation
  T/C: 54 % of control

## NC(=O)Oc1cccc(OC(N)=O)c1
dose: 300.0 mg/kg/injection, schedule: Q04DX003 (sc), vehicle: water
  T/C: 68 % of control
dose: 600.0 mg/kg/injection, schedule: Q04DX003 (sc), vehicle: water
  T/C: 101 % of control
dose: 1200.0 mg/kg/injection, schedule: Q04DX003 (sc), vehicle: water
  T/C: 53 % of control

## COc1cc(C(=O)c2cocc2C(=O)c2ccc3c(c2)OCO3)cc(OC)c1OC
[13]
  T/C: 74 % of control
[2]
  T/C: 52 % of control
[3]
  T/C: 56 % of control
[4]
  T/C: 44 % of control

## CC(=O)OC1COC(NC(=O)N(CCCl)N=O)C(OC(C)=O)C1OC(C)=O (stereo not drawn)
dose: 4.5 mg/kg/injection, schedule: Q04DX003 (sc), vehicle: saline with Tween-80
  T/C: 105 % of control
dose: 9.0 mg/kg/injection, schedule: Q04DX003 (sc), vehicle: saline with Tween-80
  T/C: 77 % of control
dose: 18.0 mg/kg/injection, schedule: Q04DX003 (sc), vehicle: saline with Tween-80
  T/C: 110 % of control
[1]
  T/C: 82 % of control

## COc1ccc(C(=O)/C(Br)=C/C(=O)O)cc1
[16]
  T/C: 110 % of control
[17]
  T/C: 63 % of control
[18]
  T/C: 98 % of control

## NCCCC(N)(C(=O)O)C(F)F (stereo not drawn)
dose: 300.0 mg/kg/injection, schedule: Q04DX003 (sc), vehicle: distilled water + alcohol
  T/C: 110 % of control
dose: 600.0 mg/kg/injection, schedule: Q04DX003 (sc), vehicle: distilled water + alcohol
  T/C: 83 % of control
dose: 1200.0 mg/kg/injection, schedule: Q04DX003 (sc), vehicle: distilled water + alcohol
  T/C: 73 % of control
dose: 2400.0 mg/kg/injection, schedule: Q04DX003 (sc), vehicle: distilled water + alcohol
  T/C: 112 % of control
